From article PMC5739597, “Discovery and evaluation of triple inhibitors of VEGFR-2, TIE-2 and EphB4 as anti-angiogenic and anti-cancer agents” (Oncotarget, 2017) come the findings set out here.

One data set has as its target VEGFR-1 (Homo sapiens, UniProt P17948). The experiment in a line: Kinase-Glo Plus RTK selectivity assay, VEGFR-1. It is filed as biochemical. The note with it: 10 μM ATP. As for the experimental part: (§1) A 50 μL reaction mixture contains 40 mM Tris, pH 7.4, 10 mM MgCl2, 0.1 mg/ml BSA, 1 mM DTT, 10 μM ATP, kinase and substrate (0.2 mg/mL Poly(Glu, Tyr)/10 μM ATP). The test compounds were diluted in 10% DMSO and 5 μL of the dilution was added to a 50 μL reaction so that the final concentration of DMSO is 1% in all of reactions. The assay was performed using Kinase-Glo Plus luminescence kinase assay kit. It measures kinase activity by quantitating the amount of ATP remaining in solution following a kinase reaction. The luminescent signal from the assay is correlated with the amount of ATP present and is inversely correlated with the amount of kinase activity. The IC50 values were calculated using nonlinear regression with normalized dose−response fit using Prism GraphPad software.

Another data set concerns the target FGFR-1 (Homo sapiens, UniProt P11362). The experiment in a line: Kinase-Glo Plus RTK selectivity assay, FGFR-1. The note with it: 10 μM ATP. It is filed as biochemical. On the procedure:
The assay was performed using Kinase-Glo Plus luminescence kinase assay kit. It measures kinase activity by quantitating the amount of ATP remaining in solution following a kinase reaction. The luminescent signal from the assay is correlated with the amount of ATP present and is inversely correlated with the amount of kinase activity.

Data set [1] deals with T1, VEGFR-2 (Homo sapiens, UniProt P35968). The data set is described as follows: ADP-Glo in vitro RTK inhibition assay, VEGFR-2. It is filed as biochemical. The note with it: ATP 50 μM. As for the experimental part: (§2) In order to validate the direct effect of title compounds on VEGFR-2, Tie-2, and EphB4 kinases, we performed in vitro assay using the ADP-Glo Kinase Assay Kit (Promega, Wisconsin, USA).
T1 sequence (P35968 20-1356): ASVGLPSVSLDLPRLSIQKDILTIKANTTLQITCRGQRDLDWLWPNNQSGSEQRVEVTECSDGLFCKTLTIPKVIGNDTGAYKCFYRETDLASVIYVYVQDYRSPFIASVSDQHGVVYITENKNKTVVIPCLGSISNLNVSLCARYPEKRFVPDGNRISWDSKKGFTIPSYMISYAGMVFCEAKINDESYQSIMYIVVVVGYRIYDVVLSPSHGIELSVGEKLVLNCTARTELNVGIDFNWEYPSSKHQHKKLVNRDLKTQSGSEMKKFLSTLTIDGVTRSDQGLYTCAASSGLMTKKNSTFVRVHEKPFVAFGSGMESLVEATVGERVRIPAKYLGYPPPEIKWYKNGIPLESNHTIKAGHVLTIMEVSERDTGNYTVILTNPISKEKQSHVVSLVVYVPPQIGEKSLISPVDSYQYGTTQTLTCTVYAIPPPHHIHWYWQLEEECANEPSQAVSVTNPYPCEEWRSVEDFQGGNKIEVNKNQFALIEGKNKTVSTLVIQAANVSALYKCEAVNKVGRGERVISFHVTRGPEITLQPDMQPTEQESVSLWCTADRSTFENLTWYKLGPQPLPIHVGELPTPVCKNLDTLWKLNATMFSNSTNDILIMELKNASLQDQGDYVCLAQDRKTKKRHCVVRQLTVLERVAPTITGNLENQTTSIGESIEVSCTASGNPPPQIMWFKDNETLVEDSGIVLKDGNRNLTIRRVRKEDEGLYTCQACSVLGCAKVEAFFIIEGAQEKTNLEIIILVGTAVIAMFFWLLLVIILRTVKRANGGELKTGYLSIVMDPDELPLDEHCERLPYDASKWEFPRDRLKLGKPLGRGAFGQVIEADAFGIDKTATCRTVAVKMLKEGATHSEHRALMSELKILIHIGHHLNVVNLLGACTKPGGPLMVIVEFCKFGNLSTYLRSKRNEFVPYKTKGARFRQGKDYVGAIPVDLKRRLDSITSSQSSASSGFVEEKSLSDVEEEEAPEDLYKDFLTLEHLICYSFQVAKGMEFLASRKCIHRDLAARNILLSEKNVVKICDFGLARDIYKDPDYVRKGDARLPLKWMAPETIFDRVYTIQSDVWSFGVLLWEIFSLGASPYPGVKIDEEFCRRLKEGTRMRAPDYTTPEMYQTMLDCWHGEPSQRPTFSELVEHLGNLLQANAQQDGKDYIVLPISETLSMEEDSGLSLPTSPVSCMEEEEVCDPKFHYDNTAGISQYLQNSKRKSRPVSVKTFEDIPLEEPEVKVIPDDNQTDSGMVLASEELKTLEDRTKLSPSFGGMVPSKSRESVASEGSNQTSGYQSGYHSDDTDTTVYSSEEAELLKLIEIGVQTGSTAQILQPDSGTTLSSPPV
(§3) The kinase assay was performed in a reaction mixture of final volume of 10 μL. […] The plate was incubated at 30°C for 1 h. After the plate was cooled at room temperature for 5 min, 5 μL of ADP-Glo reagent was added into each well to stop the reaction and consume the remaining […] within 40 min. At the end, 10 μL of kinase detection reagent was added into the well and incubated for 30 min to produce a luminescence signal. […] The assay plate was incubated at 30°C for 4 h. After the plate was cooled at room temperature for 5 min, 5 μL of ADP-Glo reagent was added into each well to stop the reaction and consume the remaining […] within 1 h. At the end, 10 μL of kinase detection reagent was added into each well and incubated for 30 min to produce a luminescence signal. The luminescence was read by VICTOR-X multi-label plate reader.

The target in another data set is TIE-2 (Homo sapiens, UniProt Q02763). The data set is described as follows: ADP-Glo in vitro RTK inhibition assay, TIE-2. It counts as biochemical. The note with it: ATP 50 μM. As for the experimental part:
as §2, §3

In another data set the test system is EA.hy926. The data set is described as follows: Human endothelial cell (EA.hy926) viability assay, CCK-8. The note with it: CCK-8, 24 h treatment, read-out: Inhibition of human endothelial cell viability, EA.hy926 IC50. It is filed as cell-based. As for the experimental part: In order to determine the anti-angiogenic effect of these multi-target inhibitors, we evaluated their effect on HECs (EA.hy926) viability using cell counting kit-8 (CCK-8) method.
The viability of HECs (EA.hy926) was assessed using the cell counting kit-8 (CCK-8, Sigma, USA) assay according to the manufacturer's instruction. […] After incubation at 37°C for 48 h, the cells were treated with tested compounds at various concentrations for 24 h. Subsequently, premixed CCK-8 and medium (10 μL) were added into the 96-well plates to monitor cell viability and were incubated at 37°C for 2 h. The number of viable cells was assessed by measurement of absorbance at 450 nm by a microplate reader. The viability rate was calculated as experimental OD value/control OD value.

For a further data set, the target named is EGFR (Homo sapiens, UniProt P00533). The data set is described as follows: Kinase-Glo Plus RTK selectivity assay, EGFR. It counts as biochemical. The note with it: 10 μM ATP. As for the experimental part:
as §1

In a further data set the target is B-Raf (Homo sapiens, UniProt P15056). The experiment in a line: Kinase-Glo Plus RTK selectivity assay, B-Raf. It is filed as biochemical. The note with it: 10 μM ATP. As for the experimental part:
as §1

The target in the next data set is c-Kit (Homo sapiens, UniProt P10721). The experiment in a line: Kinase-Glo Plus RTK selectivity assay, c-Kit. The note with it: 10 μM ATP. It counts as biochemical. On the procedure:
as §1

In the next data set the target is T2, EphB4 (Homo sapiens, UniProt P54760).
T2 sequence (P54760 16-987): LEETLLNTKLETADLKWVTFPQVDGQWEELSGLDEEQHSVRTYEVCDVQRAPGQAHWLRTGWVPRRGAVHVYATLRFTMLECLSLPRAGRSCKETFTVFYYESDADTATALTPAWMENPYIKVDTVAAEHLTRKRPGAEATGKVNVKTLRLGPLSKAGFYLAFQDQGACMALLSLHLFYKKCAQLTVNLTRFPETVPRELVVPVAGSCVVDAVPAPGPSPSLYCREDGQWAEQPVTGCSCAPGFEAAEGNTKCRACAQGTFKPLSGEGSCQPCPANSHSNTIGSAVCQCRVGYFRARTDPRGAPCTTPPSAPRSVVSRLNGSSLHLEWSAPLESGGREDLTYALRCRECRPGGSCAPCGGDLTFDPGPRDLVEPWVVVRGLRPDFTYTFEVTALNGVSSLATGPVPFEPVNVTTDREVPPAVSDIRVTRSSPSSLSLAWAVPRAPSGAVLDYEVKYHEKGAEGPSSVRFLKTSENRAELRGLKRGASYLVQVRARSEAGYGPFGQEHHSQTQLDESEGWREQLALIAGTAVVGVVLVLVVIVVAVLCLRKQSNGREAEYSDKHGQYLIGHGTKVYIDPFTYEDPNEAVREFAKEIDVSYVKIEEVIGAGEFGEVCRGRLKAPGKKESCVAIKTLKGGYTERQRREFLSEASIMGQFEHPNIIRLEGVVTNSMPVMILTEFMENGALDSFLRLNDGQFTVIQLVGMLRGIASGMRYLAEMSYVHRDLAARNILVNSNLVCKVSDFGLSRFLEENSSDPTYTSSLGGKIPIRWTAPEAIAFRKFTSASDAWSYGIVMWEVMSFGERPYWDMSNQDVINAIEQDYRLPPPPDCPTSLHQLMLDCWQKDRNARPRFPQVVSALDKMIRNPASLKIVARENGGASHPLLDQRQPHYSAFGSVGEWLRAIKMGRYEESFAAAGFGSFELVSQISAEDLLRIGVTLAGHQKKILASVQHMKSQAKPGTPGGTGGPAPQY
The experiment in a line: ADP-Glo in vitro RTK inhibition assay, EphB4. It is filed as biochemical. The note with it: ATP 50 μM. On the procedure:
as §2, §3

The target of the next data set is FGFR-4 (Homo sapiens, UniProt P22455). The data set is described as follows: Kinase-Glo Plus RTK selectivity assay, FGFR-4. It counts as biochemical. The note with it: 10 μM ATP. As for the experimental part: as §1
Sequence of FGFR-4 (P22455 22-802, species assumed): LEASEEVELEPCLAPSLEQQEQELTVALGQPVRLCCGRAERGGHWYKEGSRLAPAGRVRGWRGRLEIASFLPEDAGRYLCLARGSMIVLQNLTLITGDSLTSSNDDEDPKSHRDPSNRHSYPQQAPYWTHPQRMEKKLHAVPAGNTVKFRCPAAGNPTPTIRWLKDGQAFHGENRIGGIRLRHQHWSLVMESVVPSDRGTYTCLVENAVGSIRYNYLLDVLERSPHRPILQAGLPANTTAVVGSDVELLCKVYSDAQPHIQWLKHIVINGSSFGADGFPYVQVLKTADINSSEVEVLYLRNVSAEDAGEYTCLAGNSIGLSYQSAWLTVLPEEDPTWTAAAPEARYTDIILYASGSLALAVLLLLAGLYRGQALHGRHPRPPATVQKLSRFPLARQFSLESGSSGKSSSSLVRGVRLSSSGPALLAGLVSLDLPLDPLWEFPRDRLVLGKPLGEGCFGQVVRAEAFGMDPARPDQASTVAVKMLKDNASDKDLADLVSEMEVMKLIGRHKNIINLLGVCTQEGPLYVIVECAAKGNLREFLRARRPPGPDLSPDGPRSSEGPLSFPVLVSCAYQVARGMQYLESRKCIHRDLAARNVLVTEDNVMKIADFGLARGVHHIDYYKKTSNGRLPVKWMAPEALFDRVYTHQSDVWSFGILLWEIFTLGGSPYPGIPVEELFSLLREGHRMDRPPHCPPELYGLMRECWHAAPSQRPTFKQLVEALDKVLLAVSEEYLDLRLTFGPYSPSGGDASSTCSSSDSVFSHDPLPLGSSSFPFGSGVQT
The subject of another data set is MCF-7 xenograft. The experiment in a line: In vivo MCF-7 xenograft mice model. The note with it: ig, 40 mg/kg daily, 21 days.
Data set [2] concerns the target T1, VEGFR-2. The experiment in a line: VEGFR-2/cell membrane chromatography (CMC) affinity evaluation. It is filed as binding. The note with it: flow rate 0.6 mL/min, 37°C, 5 mM PBS pH 7.4, 270 nm. As for the experimental part:
In previous studies, artificial cultures highly expressing VEGFR-2 on HEK293 cell lines were constructed. […] Chromatographic conditions: 10 mm×2.0 mm; flow rate0.6 mL/min; column temperature 37°C; mobile phase 5 mM PBS, pH 7.4; detection wavelength 270 nm.
The VEGFR-2 cell membrane stationary phase was prepared as previous reported. Aqueous ammonium acetate buffer solution (pH 7.4, 5 mM) was pumped at a flow rate of 0.2 mL/min as the mobile phase after VEGFR-2/CMC column was loaded onto the chromatography system at the temperature of 37°C. […] The mobile phase was 5.0 mM phosphate burred saline with a 0.6 mL/min flow rate at a column temperature of 37°C. The detected wavelength was 270 nm. The test compound was injected into the VEGFR-2/CMC column and their retention characteristics were identified to evaluate their affinity with VEGFR-2.

“And” between values parts separate entries of the source, which are not always exact repeats. Equal values may be shown once. Read-outs that look alike come from different tables or passages of the source.

Sequence of c-Kit (P10721 26-976): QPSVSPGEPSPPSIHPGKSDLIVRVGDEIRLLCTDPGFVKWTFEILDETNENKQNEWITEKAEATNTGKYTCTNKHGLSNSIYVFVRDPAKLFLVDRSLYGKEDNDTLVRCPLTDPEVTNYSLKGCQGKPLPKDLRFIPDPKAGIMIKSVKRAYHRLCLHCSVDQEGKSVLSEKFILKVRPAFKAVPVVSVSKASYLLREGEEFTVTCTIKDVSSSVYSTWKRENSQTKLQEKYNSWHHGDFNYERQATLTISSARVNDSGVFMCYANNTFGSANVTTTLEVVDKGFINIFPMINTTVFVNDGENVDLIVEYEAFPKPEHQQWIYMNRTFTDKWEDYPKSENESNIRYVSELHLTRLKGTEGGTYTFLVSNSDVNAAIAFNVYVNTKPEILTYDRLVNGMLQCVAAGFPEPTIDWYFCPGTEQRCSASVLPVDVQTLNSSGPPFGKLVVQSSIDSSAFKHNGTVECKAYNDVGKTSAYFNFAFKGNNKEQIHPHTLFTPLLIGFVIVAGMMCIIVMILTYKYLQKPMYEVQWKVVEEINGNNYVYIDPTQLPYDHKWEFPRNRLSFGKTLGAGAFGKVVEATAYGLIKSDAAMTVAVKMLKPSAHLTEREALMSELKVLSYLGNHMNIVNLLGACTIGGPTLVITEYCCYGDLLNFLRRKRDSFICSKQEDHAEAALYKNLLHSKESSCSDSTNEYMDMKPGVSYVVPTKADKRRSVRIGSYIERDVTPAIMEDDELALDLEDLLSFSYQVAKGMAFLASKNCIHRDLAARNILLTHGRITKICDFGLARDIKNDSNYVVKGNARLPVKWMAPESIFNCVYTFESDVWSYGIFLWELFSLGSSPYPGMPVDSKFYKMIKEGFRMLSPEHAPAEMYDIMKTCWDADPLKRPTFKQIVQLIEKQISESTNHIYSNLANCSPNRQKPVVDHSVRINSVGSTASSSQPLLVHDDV
Sequence of TIE-2 (Q02763 23-1124): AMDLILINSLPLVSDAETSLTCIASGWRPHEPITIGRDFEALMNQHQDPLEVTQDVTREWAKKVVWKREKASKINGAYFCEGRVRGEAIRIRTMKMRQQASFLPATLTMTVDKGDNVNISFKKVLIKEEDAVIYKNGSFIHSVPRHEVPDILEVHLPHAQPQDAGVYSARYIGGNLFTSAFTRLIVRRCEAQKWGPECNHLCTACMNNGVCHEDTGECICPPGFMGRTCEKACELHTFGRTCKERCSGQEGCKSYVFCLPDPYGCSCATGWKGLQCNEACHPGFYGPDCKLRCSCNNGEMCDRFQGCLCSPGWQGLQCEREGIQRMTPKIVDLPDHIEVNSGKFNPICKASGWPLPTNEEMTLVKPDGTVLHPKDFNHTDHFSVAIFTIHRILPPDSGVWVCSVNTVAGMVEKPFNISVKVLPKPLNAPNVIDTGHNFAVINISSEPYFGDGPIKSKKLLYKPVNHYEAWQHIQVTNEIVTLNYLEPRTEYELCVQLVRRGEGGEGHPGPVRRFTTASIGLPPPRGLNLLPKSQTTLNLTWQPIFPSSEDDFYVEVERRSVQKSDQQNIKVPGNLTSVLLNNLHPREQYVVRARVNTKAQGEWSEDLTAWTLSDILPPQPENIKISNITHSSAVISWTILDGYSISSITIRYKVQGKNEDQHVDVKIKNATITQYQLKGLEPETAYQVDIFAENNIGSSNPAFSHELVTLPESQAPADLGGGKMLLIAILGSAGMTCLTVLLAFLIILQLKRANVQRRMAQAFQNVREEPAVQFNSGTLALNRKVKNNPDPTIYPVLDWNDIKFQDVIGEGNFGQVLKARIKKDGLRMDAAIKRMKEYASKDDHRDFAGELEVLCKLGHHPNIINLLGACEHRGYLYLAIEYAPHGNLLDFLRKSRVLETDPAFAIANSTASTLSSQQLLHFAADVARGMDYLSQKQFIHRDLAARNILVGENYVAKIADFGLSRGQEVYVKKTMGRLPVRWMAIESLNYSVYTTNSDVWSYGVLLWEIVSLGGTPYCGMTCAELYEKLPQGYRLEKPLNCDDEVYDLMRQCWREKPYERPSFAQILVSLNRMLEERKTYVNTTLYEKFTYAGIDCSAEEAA
Sequence of B-Raf (P15056 whole entry, species assumed): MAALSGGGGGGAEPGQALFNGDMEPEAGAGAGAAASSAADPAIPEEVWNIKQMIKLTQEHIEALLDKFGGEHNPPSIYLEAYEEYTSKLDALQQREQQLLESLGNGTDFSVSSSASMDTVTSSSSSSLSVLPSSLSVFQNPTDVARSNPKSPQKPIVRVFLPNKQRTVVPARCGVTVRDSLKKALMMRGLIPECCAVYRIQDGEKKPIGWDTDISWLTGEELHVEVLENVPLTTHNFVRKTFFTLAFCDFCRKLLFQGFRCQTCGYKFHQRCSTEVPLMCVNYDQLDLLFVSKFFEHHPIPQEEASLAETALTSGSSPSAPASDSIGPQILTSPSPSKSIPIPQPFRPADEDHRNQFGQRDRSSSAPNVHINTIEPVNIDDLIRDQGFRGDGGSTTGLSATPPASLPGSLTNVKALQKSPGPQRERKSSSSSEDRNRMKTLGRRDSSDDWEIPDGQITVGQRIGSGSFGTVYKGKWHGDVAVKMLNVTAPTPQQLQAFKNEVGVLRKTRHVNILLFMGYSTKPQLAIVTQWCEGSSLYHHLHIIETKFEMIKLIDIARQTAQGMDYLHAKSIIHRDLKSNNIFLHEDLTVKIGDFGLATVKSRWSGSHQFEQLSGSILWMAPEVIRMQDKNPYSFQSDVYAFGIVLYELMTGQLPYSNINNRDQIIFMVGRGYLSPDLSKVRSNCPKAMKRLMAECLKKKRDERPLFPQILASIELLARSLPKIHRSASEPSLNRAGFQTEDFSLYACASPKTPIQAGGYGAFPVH
Protocol for MCF-7 xenograft: Six-week old female BALB/c mice were purchased from Shanghai Laboratory Animal center of the Chinese Academy of Sciences and housed under aseptic and ventilated condition. The mice were inoculated by subcutaneous injection with MCF-7 cancer cells suspended in 5% saline. Tumor volume and weight were measured on alternate days. Body weights were monitored as an indicator of toxicity. […] Treatment started from the next day and continued for 21 days. All mice were killed at the end of the experiment, and subcutaneous tumors were removed and weighted.

On to `O=C(Nc1ccc(-c2ccc3c(=O)[nH]cnc3c2)cc1)Nc1ccccc1F` [QDAU4, 1-(2-fluorophenyl)-3-(4-(4-oxo-3,4-dihydroquinazolin-7-yl)phenyl)urea], for which the melting point was greater than 300 °C. Moreover, the IC50 at VEGFR-1 was 68.3 nM. Also, the IC50 on FGFR-1 is 166 nM. Further, at VEGFR-2 [1], the IC50 turned out to be 1.91 nM. The molecule further displayed an IC50 against TIE-2 of 4.91 nM. For the same molecule, in the data set on EA.hy926, the IC50 came to 8640 nM. In addition, the IC50 with EA.hy926 (Homo sapiens, EA.hy 926, 24 h) was less than 10000 nM. In addition, the IC50 on EGFR is 113 nM. For the same molecule, the IC50 on B-Raf was determined as 136 nM. In addition, the IC50 at c-Kit was greater than 500 nM. At EphB4, this molecule gave an IC50 of 13.9 nM. Moreover, the IC50 on FGFR-4 stood at 83.4 nM.

For `CNC(=O)c1cc(Oc2ccc(NC(=O)Nc3ccc(Cl)c(C(F)(F)F)c3)cc2)ccn1` [Sorafenib, sorafenib, reference compound], in the data set on MCF-7 xenograft, the Final body weight was determined as 16.8 ± 0.9 g and the Tumor growth inhibition is on record as 53%. This molecule displayed a Final tumor weight in the data set with MCF-7 xenograft (control 0.848±0.5) of 0.398 ± 0.8 g.

Take `CNC(=O)c1cc(Oc2ccc(NC(=O)Nc3ccc(Cl)c(C(F)(F)F)c3)c(F)c2)ccn1` [regorafenib, reference compound]: the “Retention time on VEGFR-2/cell membrane stationary phase column” value at VEGFR-2 [2] is 11 min and 10.6 min.

Take `COc1cc2c(Nc3ccc(Br)cc3F)ncnc2cc1OCC1CCN(C)CC1` [vandetanib, reference compound]: the “Retention time on VEGFR-2/cell membrane stationary phase column” value on VEGFR-2 [2] is 4.5 min.
